The results in this text go back to patent US20240294548A1, “TRICYCLIC SULTAMS AND SULFAMIDES AS ANTITUMOR AGENTS” (PELOTON THERAPEUTICS INC., priority 2021, published 2024).

The target of assay [1] is T1, DCAF15 (DDA1-DDB1ΔB-DCAF15Δpro) (Homo sapiens, UniProt Q66K64, DEL276-383).
T1 construct: made in house; host or cells: Sf9 (Bac-to-Bac baculovirus)
The assay is described as follows: DCAF15 displacement assay (displacement FRET, probe PT7795). In kind it is binding. The settings on record: displacement of PT7795 (300 nM), compound 0.01 to 100 μM, 18 hours incubation; read-out: DCAF15 displacement IC50.

Assay [2] concerns HCT116 human colorectal carcinoma cells. The assay is described as follows: CellTiter-Glo assay (cell viability). Format: cell-based. The settings on record: HCT-116, 72 h, HCT116 cells, 3 days, CellTiter-Glo luminescence, read-out: CTG IC50. In a few lines: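 Cells (3,000/well) in DMEM/10% FBS were treated next day with 3-fold serial dilutions (final top […]) in triplicate for 3 days. Viability read by CellTiter-Glo luminescence; IC50 derived from dose-response.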

In assay [3] the target is T2, DCAF15 RBM39 ternary complex (Homo sapiens, UniProt Q14498+Q66K64, DEL276-383).
T2 construct: Amino acids 150 to 331 of RBM39 were cloned into pGEX4T3; GST (from the pGEX4T3 vector, own knowledge) followed by a TEV cleavage site (N); made in house; host or cells: Sf9 baculovirus (DDB1ΔB/DCAF15); E. coli (RBM39 R1R2)
The assay is described as follows: DCAF15 RBM39 complex formation assay (FRET). In kind it is biochemical. Conditions: FRET ratio, 20 nM DDB1DB/DCAF15, 50 nM RBM39 R1R2, overnight at 4° C.; read-out: DCAF15 RBM39 ternary complex EC50. Put shortly:
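TR-FRET between Eu-anti-His and APC-anti-FLAG, using 20 nM His-DCAF15/DDB1DB (Sf9) with 50 nM RBM39 RRM1–RRM2 (E. coli) in HEPES pH 7.5 buffer. Compounds run as a 14-point 3-fold series from 1 μM, incubated overnight at 4 °C.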

The structures appear in SMILES notation. Where only a bound is given, the exact number is not on record here.

T2 sequence (Q66K64 with tags, fused parts or gaps DEL276-383): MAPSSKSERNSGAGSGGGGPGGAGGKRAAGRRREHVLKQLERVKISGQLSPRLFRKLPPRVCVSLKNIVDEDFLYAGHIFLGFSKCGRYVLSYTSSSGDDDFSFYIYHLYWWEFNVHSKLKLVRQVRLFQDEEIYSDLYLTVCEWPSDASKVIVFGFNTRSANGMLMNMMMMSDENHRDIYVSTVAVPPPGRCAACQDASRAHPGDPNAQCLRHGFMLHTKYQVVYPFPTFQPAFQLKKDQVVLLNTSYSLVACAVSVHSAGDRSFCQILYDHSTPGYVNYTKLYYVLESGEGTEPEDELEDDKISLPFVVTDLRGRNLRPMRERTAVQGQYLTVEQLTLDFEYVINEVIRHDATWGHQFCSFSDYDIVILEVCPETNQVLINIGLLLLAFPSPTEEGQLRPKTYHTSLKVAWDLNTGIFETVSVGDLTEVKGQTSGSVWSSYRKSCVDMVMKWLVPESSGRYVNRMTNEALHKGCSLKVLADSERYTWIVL
T2 sequence (Q14498 150-331, stated change not applied): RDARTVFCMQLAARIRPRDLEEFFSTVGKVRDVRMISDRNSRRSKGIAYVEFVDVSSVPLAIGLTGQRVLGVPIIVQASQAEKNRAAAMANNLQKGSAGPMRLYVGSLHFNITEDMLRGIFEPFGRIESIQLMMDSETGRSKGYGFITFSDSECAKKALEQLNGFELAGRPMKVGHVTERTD

The IC50 is the point on the concentration scale where inhibition reaches its midpoint. What is called EC50 is the midpoint of the concentration-response curve. Consider `O=S1(=O)Nc2c(cc(Cl)c3c(Cl)c[nH]c23)CN1Cc1ccc(C(F)(F)F)nc1` [Compound 49, 6,7-dichloro-3-((6-(trifluoromethyl)pyridin-3-yl)methyl)-1,3,4,9-tetrahydro-[1,2,6] thiadiazino[4,3-g]indole 2,2-dioxide], for which the 50% inhibitory concentration (IC50) in assay [1] turned out to be 8390 nM; in assay [2], 2250 nM. The 50% effective concentration (EC50) in assay [3] is 0.7 nM.
In the same order, the values of `CS(=O)(=O)N1CCC(CN2Cc3cc(Cl)c4c(Cl)c[nH]c4c3NS2(=O)=O)CC1` [Compound 72, 6,7-dichloro-3-((1-(methylsulfonyl)piperidin-4-yl)methyl)-1,3,4,9-tetrahydro-[1,2,6]thiadiazino[4,3-g]indole 2,2-dioxide] are 223 nM, 150 nM and 1.2 nM.
As to `CC(=O)N1CCC(CN2Cc3cc(Cl)c4c(Cl)c[nH]c4c3NS2(=O)=O)CC1` [Compound 45, 1-(4-((6,7-dichloro-2,2-dioxido-4,9-dihydro-[1,2,6]thiadiazino[4,3-g]indol-3(1H)-yl)methyl)piperidin-1-yl)ethan-1-one], the 50% inhibitory concentration (IC50) in assay [1] came out at 127 nM; in assay [2] it was 52.8 nM. Further, the concentration giving a half-maximal response (EC50) in assay [3] amounted to 1.6 nM.
The corresponding values for `Cn1cc(CN2Cc3cc(Cl)c4c(Cl)c[nH]c4c3NS2(=O)=O)cn1` [Compound 43, 6,7-dichloro-3-((1-methyl-1H-pyrazol-4-yl)methyl)-1,3,4,9-tetrahydro-[1,2,6] thiadiazino[4,3-g]indole 2,2-dioxide] are 1050 nM, 246 nM and 2.7 nM.
The corresponding values for `O=S1(=O)Nc2c(cc(Cl)c3c(Cl)c[nH]c23)CN1Cc1cncnc1` [Compound 33, 6,7-dichloro-3-(pyrimidin-5-ylmethyl)-1,3,4,9-tetrahydro-[1,2,6]thiadiazino[4,3-g] indole 2,2-dioxide] are 530 nM, 162 nM and 2.3 nM.
For `Cn1cnc(CN2Cc3cc(Cl)c4c(Cl)c[nH]c4c3NS2(=O)=O)n1` [Compound 37, 6,7-dichloro-3-((1-methyl-1H-1,2,4-triazol-3-yl)methyl)-1,3,4,9-tetrahydro-[1,2,6] thiadiazino[4,3-g]indole 2,2-dioxide], the concentration for half-maximal inhibition (IC50) in assay [1] turned out to be 2000 nM; in assay [2] it was 568 nM. Moreover, the EC50 in assay [3] was 2.5 nM.
The corresponding values for `O=c1ccc(CN2Cc3cc(Cl)c4c(Cl)c[nH]c4c3NS2(=O)=O)c[nH]1` [Compound 17, 5-((6,7-dichloro-2,2-dioxido-4,9-dihydro-[1,2,6]thiadiazino[4,3-g]indol-3(1H)-yl)methyl)pyridin-2(1H)-one] are 797 nM, 916 nM and 1.8 nM.
The corresponding values for `N#Cc1ccccc1CN1Cc2cc(Cl)c3c(Cl)c[nH]c3c2NS1(=O)=O` [Compound 46, 2-((6,7-dichloro-2,2-dioxido-4,9-dihydro-[1,2,6]thiadiazino[4,3-g]indol-3(1H)-yl)methyl) benzonitrile] are 294 nM, 278 nM and 1.6 nM.
In the same order, the values of `CC1(C)Cc2cc(Cl)c3c(Cl)c[nH]c3c2NS1(=O)=O` [Compound 66, 6,7-dichloro-3,3-dimethyl-1,3,4,9-tetrahydro-[1,2]thiazino[4,3-g]indole 2,2-dioxide] are at least 100000 nM, 5000 nM and 108 nM.
Take `O=S1(=O)Nc2c(cc(Cl)c3c(Cl)c[nH]c23)CN1CCCCF` [Compound 18, 6,7-dichloro-3-(4-fluorobutyl)-1,3,4,9-tetrahydro-[1,2,6]thiadiazino[4,3-g]indole 2,2-dioxide]: the results for the IC50 in assay [1] and in assay [2] were 2680 nM and 418 nM, respectively. The concentration for a half-maximal effect (EC50) in assay [3] was 0.9 nM.
Regarding `Nc1ccccc1CN1Cc2cc(Cl)c3c(Cl)c[nH]c3c2NS1(=O)=O` [Compound 74, 3-(2-aminobenzyl)-6,7-dichloro-1,3,4,9-tetrahydro-[1,2,6] thiadiazino[4,3-g]indole 2,2-dioxide], the IC50 in assay [1] stood at 301 nM; in assay [2] it was 171 nM. For the same compound, the EC50 in assay [3] came out at 1.3 nM.
The corresponding values for `O=S1(=O)Nc2c(cc(Cl)c3c(Cl)c[nH]c23)CN1Cc1ccncc1Cl` [Compound 35, 6,7-dichloro-3-((3-chloropyridin-4-yl)methyl)-1,3,4,9-tetrahydro-[1,2,6]thiadiazino [4,3-g]indole 2,2-dioxide] are 210 nM, 118 nM and 4 nM.
The corresponding values for `O=c1cccc(CN2Cc3cc(Cl)c4c(Cl)c[nH]c4c3NS2(=O)=O)[nH]1` [Compound 57, 6-((6,7-dichloro-2,2-dioxido-4,9-dihydro-[1,2,6]thiadiazino[4,3-g]indol-3(1H)-yl)methyl)pyridin-2(1H)-one] are 1000 nM, 525 nM and 4 nM.
The corresponding values for `O=S1(=O)Nc2c(cc(Cl)c3c(Cl)c[nH]c23)CN1Cc1ccc(C(F)F)nc1` [Compound 53, 6,7-dichloro-3-((6-(difluoromethyl)pyridin-3-yl)methyl)-1,3,4,9-tetrahydro-[1,2,6]thiadiazino [4,3-g]indole 2,2-dioxide] are 4280 nM, 394 nM and 3.4 nM.
Turning to `CN(C)CCN1Cc2cc(Cl)c3c(Cl)c[nH]c3c2NS1(=O)=O` [Compound 41, 6,7-dichloro-3-(2-(dimethylamino)ethyl)-1,3,4,9-tetrahydro-[1,2,6] thiadiazino[4,3-g]indole 2,2-dioxide], the figures for the IC50 in assay [1] and in assay [2] were 17500 nM and 183 nM, respectively. For the same compound, in assay [3], the half-maximal effective concentration (EC50) is 10.6 nM.
In the same order, the values of `O=S1(=O)Nc2c(cc(Cl)c3c(Cl)c[nH]c23)CN1CCc1ccccc1` [Compound 84, 6,7-dichloro-3-phenethyl-1,3,4,9-tetrahydro-[1,2,6] thiadiazino[4,3-g]indole 2,2-dioxide] are 33100 nM, 1790 nM and 4.3 nM.
In the same order, the values of `O=S1(=O)Nc2c(cc(Cl)c3c(Cl)c[nH]c23)CN1Cc1ccc(Cl)cc1` [Compound 13, 6,7-dichloro-3-(4-chlorobenzyl)-1,3,4,9-tetrahydro-[1,2,6] thiadiazino[4,3-g]indole 2,2-dioxide] are 36100 nM, 810 nM and 6.2 nM.
The corresponding values for `O=S1(=O)Nc2c(cc(Cl)c3c(Cl)c[nH]c23)CN1CCO` [Compound 24, 6,7-dichloro-3-(2-hydroxyethyl)-1,3,4,9-tetrahydro-[1,2,6] thiadiazino[4,3-g]indole 2,2-dioxide] are 8300 nM, 799 nM and 3.9 nM.
`O=S1(=O)Nc2c(cc(Cl)c3c(Cl)c[nH]c23)CN1CCCC(F)(F)C(F)(F)F` [Compound 25, 6,7-dichloro-3-(4,4,5,5,5-pentafluoropentyl)-1,3,4,9-tetrahydro-[1,2,6] thiadiazino[4,3-g]indole 2,2-dioxide]: the values for the IC50 in assay [1] and in assay [2] were 52200 nM and 992 nM, respectively. Moreover, in assay [3], the concentration giving a half-maximal response (EC50) came to 3.4 nM.
